Measured values: PubChem BioAssay AID1963867 (Molecular Pharmacology Branch, DTP, NCI, 2024)

System: KRAS-mutant PDC tumor spheroid with HUVEC/MSC, viability
Assay: Anticancer human tumor 327498-153-R-J2-PDC patient-derived uterine carcinosarcoma cell line growth inhibition [KRAS2]
Details: for viability, T/C: stronger effect = lower value; active means viability on the fitted dose curve at most 10% of control; inactive means the rest
Procedure, shortened: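 Combination screen of spheroid viability in tumor-cell co-cultures with endothelial (HUVEC) and mesenchymal stem cell stroma. Each agent was tested in half-log dilutions, topping at clinical Cmax or at 10 microM without a known Cmax.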

[1] = curve of first compound, second compound 0.1 µM
[2] = curve of first compound, second compound 0.316 µM
[3] = curve of first compound, second compound 1 µM
[4] = curve of first compound, second compound 3.16 µM
[5] = curve of first compound, second compound 10 µM
[6] = second compound 0.1 µM, first compound 0.0001 µM
[7] = second compound 0.1 µM, first compound 0.000316 µM
[8] = second compound 0.1 µM, first compound 0.001 µM
[9] = second compound 0.1 µM, first compound 0.00316 µM
[10] = second compound 0.1 µM, first compound 0.01 µM
[11] = second compound 0.1 µM, first compound 0.0316 µM
[12] = second compound 0.316 µM, first compound 0.0001 µM
[13] = second compound 0.316 µM, first compound 0.000316 µM
[14] = second compound 0.316 µM, first compound 0.001 µM
[15] = second compound 0.316 µM, first compound 0.00316 µM
[16] = second compound 0.316 µM, first compound 0.01 µM
[17] = second compound 0.316 µM, first compound 0.0316 µM
[18] = second compound 1 µM, first compound 0.0001 µM
[19] = second compound 1 µM, first compound 0.000316 µM
[20] = second compound 1 µM, first compound 0.001 µM
[21] = second compound 1 µM, first compound 0.00316 µM
[22] = second compound 1 µM, first compound 0.01 µM
[23] = second compound 1 µM, first compound 0.0316 µM
[24] = second compound 3.16 µM, first compound 0.0001 µM
[25] = second compound 3.16 µM, first compound 0.000316 µM
[26] = second compound 3.16 µM, first compound 0.001 µM
[27] = second compound 3.16 µM, first compound 0.00316 µM
[28] = second compound 3.16 µM, first compound 0.01 µM
[29] = second compound 3.16 µM, first compound 0.0316 µM
[30] = second compound 10 µM, first compound 0.0001 µM
[31] = second compound 10 µM, first compound 0.000316 µM
[32] = second compound 10 µM, first compound 0.001 µM
[33] = second compound 10 µM, first compound 0.00316 µM
[34] = second compound 10 µM, first compound 0.01 µM
[35] = second compound 10 µM, first compound 0.0316 µM
[36] = second compound 0.1 µM, first compound 0.1 µM
[37] = second compound 0.1 µM, first compound 0.316 µM
[38] = second compound 0.1 µM, first compound 1 µM
[39] = second compound 0.1 µM, first compound 3.16 µM
[40] = second compound 0.316 µM, first compound 0.1 µM
[41] = second compound 0.316 µM, first compound 0.316 µM
[42] = second compound 0.316 µM, first compound 1 µM
[43] = second compound 0.316 µM, first compound 3.16 µM
[44] = second compound 1 µM, first compound 0.1 µM
[45] = second compound 1 µM, first compound 0.316 µM
[46] = second compound 1 µM, first compound 1 µM
[47] = second compound 1 µM, first compound 3.16 µM
[48] = second compound 3.16 µM, first compound 0.1 µM
[49] = second compound 3.16 µM, first compound 0.316 µM
[50] = second compound 3.16 µM, first compound 1 µM
[51] = second compound 3.16 µM, first compound 3.16 µM
[52] = second compound 10 µM, first compound 0.1 µM
[53] = second compound 10 µM, first compound 0.316 µM
[54] = second compound 10 µM, first compound 1 µM
[55] = second compound 10 µM, first compound 3.16 µM
[56] = second compound 0.1 µM, first compound 10 µM
[57] = second compound 0.316 µM, first compound 10 µM
[58] = second compound 1 µM, first compound 10 µM
[59] = second compound 3.16 µM, first compound 10 µM
[60] = second compound 10 µM, first compound 10 µM
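Further: spheroids exposed to agents for seven days before reading.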
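Wherever viability, T/C is given: 100% = DMSO vehicle wells so lower means fewer viable cells.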

CC(=O)Nc1cccc(-n2c(=O)n(C3CC3)c(=O)c3c(Nc4ccc(I)cc4F)n(C)c(=O)c(C)c32)c1 + COc1cc2nc(C)nc(NC(C)c3cc(N)cc(C(F)(F)F)c3)c2cc1OC1CCOC1
1.05 nM: IC50 [4]
2.12 nM: IC50 [3]
2.62 nM: IC50 [2]
inactive: viability, T/C [6] 67.4% | viability, T/C [7] 68.6% | viability, T/C [8] 55.7% | viability, T/C [9] 48.5% | viability, T/C [10] 46.1% | viability, T/C [11] 25.5% | viability, T/C [12] 74.9% | viability, T/C [13] 63.1% | viability, T/C [14] 54.5% | viability, T/C [15] 50.9% | viability, T/C [16] 43.2% | viability, T/C [17] 26.8% | viability, T/C [18] 64.6% | viability, T/C [19] 67.3% | viability, T/C [20] 52.3% | viability, T/C [21] 44.3% | viability, T/C [22] 40.8% | viability, T/C [23] 22.9% | viability, T/C [24] 56.5% | viability, T/C [25] 52.6% | viability, T/C [26] 47.9% | viability, T/C [27] 44.1% | viability, T/C [28] 40% | viability, T/C [29] 22.4% | viability, T/C [30] 48.1% | viability, T/C [31] 37.7% | viability, T/C [32] 38.4% | viability, T/C [33] 29.8% | viability, T/C [34] 31.1% | viability, T/C [35] 18.3%
3.71 nM: IC50 [1]
< 0.1 nM: IC50 [5]

CC(=O)Nc1cccc(-n2c(=O)n(C3CC3)c(=O)c3c(Nc4ccc(I)cc4F)n(C)c(=O)c(C)c32)c1 + CNCc1ccccc1-c1csc(C(C)Nc2nc(C)nc3cc(OC)c(OC)cc23)c1
inactive: viability, T/C [6] 84% | viability, T/C [7] 67% | viability, T/C [8] 61.8% | viability, T/C [9] 56.1% | viability, T/C [10] 43.9% | viability, T/C [11] 29.6% | viability, T/C [12] 71.6% | viability, T/C [13] 67.8% | viability, T/C [14] 58.4% | viability, T/C [15] 51.3% | viability, T/C [16] 48.5% | viability, T/C [17] 27% | viability, T/C [18] 70.9% | viability, T/C [19] 60.8% | viability, T/C [20] 53.9% | viability, T/C [21] 49.3% | viability, T/C [22] 41.9% | viability, T/C [23] 23.6% | viability, T/C [24] 37.2% | viability, T/C [25] 38.7% | viability, T/C [26] 22.7%
2.35 nM: IC50 [3]
4.34 nM: IC50 [1]
active: viability, T/C [27] 0.12% | viability, T/C [28] 5.68% | viability, T/C [29] 2.54% | viability, T/C [30] 0.18% | viability, T/C [31] 0.87% | viability, T/C [32] 0.14% | viability, T/C [33] 0.14% | viability, T/C [34] 0.15% | viability, T/C [35] 0.21%
4.68 nM: IC50 [2]
< 0.1 nM: IC50 [4] | IC50 [5]

CC1COCCN1c1cc(-c2ccnn2C)c2ccnc(-c3ccn[nH]3)c2n1 (configuration not stated) + C=CC(=O)N1CCN(c2nc(=O)n(-c3c(C)ccnc3C(C)C)c3nc(-c4c(O)cccc4F)c(F)cc23)C(C)C1
inactive: viability, T/C [10] 57% | viability, T/C [11] 24.8% | viability, T/C [16] 46.7% | viability, T/C [17] 21.4% | viability, T/C [22] 40.1% | viability, T/C [23] 23.3% | viability, T/C [44] 10.6% | viability, T/C [28] 42.5% | viability, T/C [29] 19.8% | viability, T/C [48] 11.8% | viability, T/C [34] 28.5% | viability, T/C [35] 14.4% | viability, T/C [52] 11.9%
12.9 nM: IC50 [1]
active: viability, T/C [36] 8.42% | viability, T/C [37] 5.52% | viability, T/C [38] 6.25% | viability, T/C [39] 5.47% | viability, T/C [40] 9% | viability, T/C [41] 6.3% | viability, T/C [42] 6.22% | viability, T/C [43] 6.06% | viability, T/C [45] 7.15% | viability, T/C [46] 6.94% | viability, T/C [47] 6.78% | viability, T/C [49] 8.81% | viability, T/C [50] 7.29% | viability, T/C [51] 6.89% | viability, T/C [53] 9.29% | viability, T/C [54] 8.01% | viability, T/C [55] 6.76%
< 10 nM: IC50 [2] | IC50 [3] | IC50 [4] | IC50 [5]

CCNC(=O)CC1N=C(c2ccc(Cl)cc2)c2cc(OC)ccc2-n2c(C)nnc21 (configuration not stated) + COc1cc2nc(C)nc(NC(C)c3cc(N)cc(C(F)(F)F)c3)c2cc1OC1CCOC1
420 nM: IC50 [2]
352 nM: IC50 [3]
459 nM: IC50 [1]
189 nM: IC50 [4]
172 nM: IC50 [5]
inactive: viability, T/C [11] 84.7% | viability, T/C [36] 81.5% | viability, T/C [37] 59.2% | viability, T/C [38] 30.5% | viability, T/C [39] 21.1% | viability, T/C [56] 20.4% | viability, T/C [17] 74% | viability, T/C [40] 69.1% | viability, T/C [41] 57.6% | viability, T/C [42] 27.5% | viability, T/C [43] 23.2% | viability, T/C [57] 24.2% | viability, T/C [23] 75.6% | viability, T/C [44] 75.2% | viability, T/C [45] 52.7% | viability, T/C [46] 22.6% | viability, T/C [47] 20.4% | viability, T/C [58] 18.2% | viability, T/C [29] 75% | viability, T/C [48] 56% | viability, T/C [49] 47.2% | viability, T/C [50] 26.5% | viability, T/C [51] 20.6% | viability, T/C [59] 21.7% | viability, T/C [35] 63.7% | viability, T/C [52] 52.7% | viability, T/C [53] 46.4% | viability, T/C [54] 23.6% | viability, T/C [55] 19.5% | viability, T/C [60] 13.9%

COc1cc2nccc(Oc3ccc(NC(=O)C4(C(=O)Nc5ccc(F)cc5)CC4)cc3)c2cc1OC + CNCc1ccccc1-c1csc(C(C)Nc2nc(C)nc3cc(OC)c(OC)cc23)c1
1670 nM: IC50 [3]
2040 nM: IC50 [1]
< 31.6 nM: IC50 [4] | IC50 [5]
active: viability, T/C [56] 0.95% | viability, T/C [57] 0.58% | viability, T/C [58] 0.3% | viability, T/C [29] 0.12% | viability, T/C [48] 0.17% | viability, T/C [49] 1.01% | viability, T/C [50] 0.1% | viability, T/C [51] 0.06% | viability, T/C [59] 0.15% | viability, T/C [35] 0.12% | viability, T/C [52] 0.11% | viability, T/C [53] 0.34% | viability, T/C [54] 0.34% | viability, T/C [55] 0.71% | viability, T/C [60] 0.81%
inactive: viability, T/C [11] 79.7% | viability, T/C [36] 80.7% | viability, T/C [37] 88.2% | viability, T/C [38] 85.9% | viability, T/C [39] 29.3% | viability, T/C [17] 83% | viability, T/C [40] 72.5% | viability, T/C [41] 77.7% | viability, T/C [42] 73.3% | viability, T/C [43] 31.8% | viability, T/C [23] 72.8% | viability, T/C [44] 73.5% | viability, T/C [45] 69.7% | viability, T/C [46] 69.5% | viability, T/C [47] 25.8%
1910 nM: IC50 [2]

CC(=O)Nc1cccc(-n2c(=O)n(C3CC3)c(=O)c3c(Nc4ccc(I)cc4F)n(C)c(=O)c(C)c32)c1
11.7 nM [middle of 5 runs]: IC50 (curve of compound)
inactive: viability, T/C (compound 0.0001 µM) 97.2% [middle of 5 runs] | viability, T/C (compound 0.000316 µM) 92.1% [middle of 5 runs] | viability, T/C (compound 0.001 µM) 75.5% [middle of 5 runs] | viability, T/C (compound 0.00316 µM) 63.5% [middle of 5 runs] | viability, T/C (compound 0.01 µM) 56.3% [middle of 5 runs] | viability, T/C (compound 0.0316 µM) 36.9% [middle of 5 runs]
